From EP4786466A1, “QUINAZOLINE DERIVATIVE, SALT THEREOF, AND PHARMACEUTICAL COMPOSITION COMPRISING SAME AS ACTIVE INGREDIENT” (Korea Research Institute of Chemical Technology, priority 2023, dated 2025)
Where two headings read alike, the source gives them in different places.

Legend:
[1] = system: MCF7 breast cancer cell lines; assay: Cell viability analysis, WST-8 assay, MCF7; conditions: Homo sapiens, MCF7, 72 h; for viability at 1 µM: read-out: Cell viability (%) WST-8, MCF7 (1 µM), compound 1 µM, 72 hours; for viability at 1.25 µM: read-out: Cell viability (%) WST-8, MCF7, footnote a: concentration 1.25 µM, 72 hours
Method: (§1) MCF7 breast cancer cell lines and MCF10A normal breast cancer cell lines were treated with serial dilutions of the compounds of the present invention ranging from 1 µM to 15.63 nM for 72 hours. Cell viability was measured by the WST-8 assay (Cyto XTM cell viability assay kit; LPS solution, Daejeon, Korea) according to the manufacturer's instructions.

[2] = molecular target: T1, Recombinant GST-TAG-MASTL (Homo sapiens, UniProt Q96GX5); assay: HTRF-based kinase assay (HTRF KinEASE assay kit); assay type: biochemical; conditions: for activity at 1 µM: read-out: MASTL activity (%) HTRF (1 µM); for activity at 10 µM: footnote b: concentration 10 µM
T1 construct: GST; purchased Thermo Fisher Scientific
T1 sequence (Q96GX5 1-879): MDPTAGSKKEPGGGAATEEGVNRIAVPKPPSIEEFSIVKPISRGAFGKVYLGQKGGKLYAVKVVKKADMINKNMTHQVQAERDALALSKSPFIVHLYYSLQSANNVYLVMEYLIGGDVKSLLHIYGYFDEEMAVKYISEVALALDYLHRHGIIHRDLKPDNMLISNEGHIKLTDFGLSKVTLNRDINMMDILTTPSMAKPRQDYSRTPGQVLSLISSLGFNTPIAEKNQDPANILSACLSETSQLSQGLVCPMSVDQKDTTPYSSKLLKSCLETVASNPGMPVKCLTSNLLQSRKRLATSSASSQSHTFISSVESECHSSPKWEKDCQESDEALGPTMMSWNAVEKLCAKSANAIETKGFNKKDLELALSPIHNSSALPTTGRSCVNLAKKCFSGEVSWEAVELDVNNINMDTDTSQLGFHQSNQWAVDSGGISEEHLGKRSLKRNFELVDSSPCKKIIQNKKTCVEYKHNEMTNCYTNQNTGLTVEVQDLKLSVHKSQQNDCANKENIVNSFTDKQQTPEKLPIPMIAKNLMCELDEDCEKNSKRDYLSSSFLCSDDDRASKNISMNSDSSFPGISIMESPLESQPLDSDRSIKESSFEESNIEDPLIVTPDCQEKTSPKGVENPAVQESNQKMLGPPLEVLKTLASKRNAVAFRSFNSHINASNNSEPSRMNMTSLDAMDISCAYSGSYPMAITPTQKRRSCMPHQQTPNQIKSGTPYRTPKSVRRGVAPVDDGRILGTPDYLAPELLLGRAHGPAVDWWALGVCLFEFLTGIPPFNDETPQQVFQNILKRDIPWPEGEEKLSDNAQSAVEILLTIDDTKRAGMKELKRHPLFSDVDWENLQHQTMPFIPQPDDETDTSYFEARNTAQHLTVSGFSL
Text: Recombinant GST-TAG-MASTL (Thermo Fisher Scientific, MA, USA) was used for HTRF-based kinase assays. The HTRF KinEASE assay kit (CisBio, MA, USA) was used according to the manufacturer's instructions.

[3] = system: MCF10A normal breast cell lines; assay: Cell viability analysis, WST-8 assay, MCF10A; conditions: Homo sapiens, MCF-10A, 72 h
Method: as §1

in vitro = conditions: human
Method: as §1

pENSA = pENSA level by immunofluorescence (described method: in vitro kinase analysis with GST-tag-MASTL and His-tag-ENSA); assay type: cell-based; conditions: for pENSA (%) Immunofluor ecense (1 µM): compound 1 µM; for IC50: read-out: IC50(nM) pENSA
Procedure, shortened: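 In vitro kinase reaction using recombinant GST-tagged MASTL with His-tagged ENSA as substrate; phosphorylated ENSA (pENSA) serves as read-out of MASTL activity. Cell lines named: MCF7 breast cancer and MCF10A.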

[4] = read-out: IC50 Cell viability (MCF7)
[5] = read-out: IC50 Cell viability (MCF10A)
[6] = read-out: IC50(nM) Cell viability (MCF7)
[7] = HTRF, read-out: IC50(nM) MASTL activity
[8] = read-out: MASTL activity (%) HTRF
[9] = read-out: IC50(nM) Cell viability (MCF10A)

Row | Compound | viability at 1 µM [1] [%] | IC50 [1, 4] [nM] | IC50 [3, 5] [nM] | viability at 1 µM (in vitro; mcf10a cells) [%] | pENSA (%) Immunofluor ecense (1 µM) (pENSA) [%] | viability at 1.25 µM [1] [%] | IC50 (pENSA) [nM] | activity at 1 µM ([2]; compound 1 µM) [%] | other results
1 | NCCNC(=O)c1ccc(Nc2nc(Nc3cc(C4CC4)[nH]n3)c3ccccc3n2)cc1 [4aa, M-(2-aminoethyl)-4-((4-((5-cyclopropyl-1G-pyrazol-3-yl)amino)quinazolin-2-yl)amino)benzamide.trifluoroacetic acid] | 87.6 | 4500 | 9000 | 111 | 142.5 |  |  |  | IC50 [2]: 720 nM; activity at 1 µM [2]: 26.8%
2 | NCCCNC(=O)c1ccc(Nc2nc(Nc3cc(C4CC4)[nH]n3)c3ccccc3n2)cc1 [4ab, M-(3-aminopropyl)-4-((4-((5-cyclopropyl-1G-pyrazol-3-yl)amino)quinazolin-2-yl)amino)benzamide.trifluoroacetic acid] | 101 | 12400 | 5800 | 101 | 188 |  |  |  | IC50 [2]: 1100 nM; activity at 1 µM [2]: 36.2%
3 | CNCc1ccc(-c2nc(Nc3cc(C4CC4)[nH]n3)c3ccccc3n2)cc1 [9d, N-(5-cyclopropyl-1H-pyrazol-3-yl)-2-(4-((methylamino)methyl)phenyl)quinazolin-4-amine hydrogen chloride] |  |  |  |  |  | 36.2 | 577 |  | IC50 [1, 6]: 539 nM; IC50 [2, 7]: 119 nM; activity at 10 µM [2, 8]: 20.4%; IC50 [3, 9]: 413 nM; viability at 1.25 µM (in vitro): 11.1%
4 | c1ccc2c(Nc3cc(C4CC4)[nH]n3)nc(N3CC4CCC(C3)N4)nc2c1 [20' (B), 2-(3,8-diazabicyclo[3.2.1]octan-3-yl)-M-(5-cyclopropyl-1G-pyrazol-3-yl)quinazolin-4-amine trifluoroacetic acid] | 32 |  |  | 34.9 | 21 |  | 755 |  | IC50 [1, 6]: 365 nM; IC50 [2]: 106 nM; activity at 1 µM [2]: 6.6%; IC50 [3, 9]: 596 nM
5 | c1ccc(Nc2nc(Nc3cc(C4CC4)[nH]n3)c3ccccc3n2)cc1 [compound 4a, M^4-(5-cyclopropyl-1G-pyrazol-3-yl)-M^2-phenylquinazoline-2,4-diamine] |  |  |  |  | 3.7 | 8.1 | 501 |  | IC50 [1, 6]: 649 nM; IC50 [2, 7]: 987 nM; activity at 1.25 µM ([2]; footnote a: concentration 1.25 µM, read-out: MASTL activity (%) HTRF): 54.9%; IC50 [3, 9]: 881 nM; viability at 1.25 µM (in vitro; mcf10a cells): 34%
6 | Nc1nc(Nc2cc(C3CC3)[nH]n2)c2ccccc2n1 [compound 4ca, N^4-(5-cyclopropyl-1H-pyrazol-3-yl)quinazoline-2,4-diamine] |  | 1700 | 2800 |  |  | 43 |  |  | IC50 ([2]; HTRF, unit µM, read-out: IC50 MASTL activity): 1800 nM; activity at 10 µM [2, 8]: 37.4%; viability at 1.25 µM (in vitro): 99.1%
7 | c1ccc(CNc2nc(Nc3cc(C4CC4)[nH]n3)c3ccccc3n2)cc1 [compound 4cc, N^2-benzyl-N^4-(5-cyclopropyl-1H-pyrazol-3-yl)quinazoline-2,4-diamine] |  | 1100 | 2800 |  |  | 65.5 | 363 |  | IC50 [2, 7]: 298 nM; activity at 10 µM [2, 8]: 22%; viability at 1.25 µM (in vitro): 98.5%
8 | COc1ccc(CNc2nc(Nc3cc(C4CC4)[nH]n3)c3ccccc3n2)cc1 [compound 4cd, N^4-(5-cyclopropyl-1H-pyrazol-3-yl)-N^2-(4-methoxybenzyl)quinazoline-2,4-diamine] |  | 2600 | 2700 |  |  | 83.8 | 543 |  | IC50 [2, 7]: 476 nM; activity at 10 µM [2, 8]: 20.3%; viability at 1.25 µM (in vitro): 83.9%
9 | c1ccc(CCNc2nc(Nc3cc(C4CC4)[nH]n3)c3ccccc3n2)cc1 [compound 4ce, N^4-(5-cyclopropyl-1H-pyrazol-3-yl)-N^2-phenethylquinazoline-2,4-diamine] |  | 1500 | 3700 |  |  | 72.8 | 491 |  | IC50 [2, 7]: 692 nM; activity at 10 µM [2, 8]: 14.1%; viability at 1.25 µM (in vitro): 100%
10 | CN(C)S(=O)(=O)c1ccc(Nc2nc(Nc3ccccc3)nc3ccccc23)cc1 [compound 25d, M,M-dimethyl-4-((2-(phenylamino)quinazolin-4-yl)amino)benzenesulfonamide] | 90.8 |  |  | 106 | 80.6 |  |  |  | activity at 1 µM [2]: 107%
11 | Cc1cc(Nc2nc(N3CC4CC3CN4C(=O)C(C)C)nc3ccccc23)n[nH]1 (stereo not shown) [compound 27c, 2-methyl-1-(5-(4-((5-methyl-1G-pyrazol-3-yl)amino)quinazolin-2-yl)-2,5-diazabicyclo[2.2.1]heptan-2-yl)propan-1-one] | 103 |  |  | 46.7 | 90.5 |  |  | 102 | 
12 | Cc1cc(Nc2nc(N3CC4CC3CN4C(=O)c3ccccc3)nc3ccccc23)n[nH]1 (stereo not shown) [compound 27d, (5-(4-((5-methyl-1G-pyrazol-3-yl)amino)quinazolin-2-yl)-2,5-diazabicyclo[2.2.1]heptan-2-yl)(phenyl)methanone] | 94.9 |  |  | 48.3 | 60.6 |  |  | 121 | 
13 | Cc1cc(Nc2nc(N3CC4CC3CN4CC(C)C)nc3ccccc23)n[nH]1 (stereo not shown) [compound 27e, 2-(5-isobutyl-2,5-diazabicyclo[2.2.1]heptan-2-yl)-M-(5-methyl-1G-pyrazol-3-yl)quinazolin-4-amine] | 88.3 |  |  | 74.8 | 90.1 |  |  | 67.4 | 
14 | Cc1cc(Nc2nc(N3CC4CC3CN4Cc3ccccc3)nc3ccccc23)n[nH]1 (stereo not shown) [compound 27f, 2-(5-benzyl-2,5-diazabicyclo[2.2.1]heptan-2-yl)-M-(5-methyl-1G-pyrazol-3-yl)quinazolin-4-amine] | 109 |  |  | 113 | 77.4 |  |  | 78.4 | 
15 | CC(C)C(=O)N1CC2CC1CN2c1nc(Nc2cn[nH]c2)c2ccccc2n1 (stereo not shown) [compound 28c, 1-(5-(4-((1G-pyrazol-4-yl)amino)quinazolin-2-yl)-2,5-diazabicyclo[2.2.1]heptan-2-yl)-2-methylpropan-1-one] | 105 |  |  | 85.3 | 80.0 |  |  | 117 | 
16 | O=C(c1ccccc1)N1CC2CC1CN2c1nc(Nc2cn[nH]c2)c2ccccc2n1 (stereo not shown) [compound 28d, (5-(4-((1G-pyrazol-4-yl)amino)quinazolin-2-yl)-2,5-diazabicyclo[2.2.1]heptan-2-yl)(phenyl)methanone] | 93.1 |  |  | 49.7 | 66.9 |  |  | 119 | 
17 | CC(C)CN1CC2CC1CN2c1nc(Nc2cn[nH]c2)c2ccccc2n1 (stereo not shown) [compound 28e, 2-(5-isobutyl-2,5-diazabicyclo[2.2.1]heptan-2-yl)-M-(1G-pyrazol-4-yl)quinazolin-4-amine] | 97.3 |  |  | 105 | 95.8 |  |  | 103 | 
18 | c1ccc(CN2CC3CC2CN3c2nc(Nc3cn[nH]c3)c3ccccc3n2)cc1 (stereo not shown) [compound 28f, 2-(5-benzyl-2,5-diazabicyclo[2.2.1]heptan-2-yl)-M-(1G-pyrazol-4-yl)quinazolin-4-amine] | 110 |  |  | 101 | 85.1 |  |  | 118 | 
